Patent publication US20070116784A1, “Imatinib combinations for head and neck cancers” (priority 2003, published 2007)
pIC50: −log10 of the molar value. Read-outs that look alike come from different tables or passages of the source.

Tests used:
DOK = assay: Growth inhibition assay (SRB); type: cell-based
Procedure: (§1) Cell lines are sub-cultured weekly and routinely screened for mycoplasma contamination.
(§2) The cells are fixed with 100 μl of pre-chilled 10% trichloroacetic acid after removal of the medium. The plates are then chilled at 4° C. for 1 h. Following this, the plates are washed twice with water and stained with 50 μl of 0.4% SRB in 1% acetic acid for 10 min at room temperature. The unbound dye is removed and the plates are washed in 1% acetic acid to further remove unbound dye. […] Growth inhibition curves are plotted and IC50 values determined.

HN3 ACC primary culture = assay: cells; type: cell-based, human
FaDu = assay: Growth inhibition assay (SRB); type: cell-based, human
Procedure: as §1, §2

Cal27 = assay: Growth inhibition assay (SRB); type: cell-based, human
Procedure: as §1, §2

HN1 ACC primary culture = assay: cells; type: cell-based, human
HN5 ACC primary culture = assay: Growth inhibition assay (SRB); type: cell-based, human

Row | Structure (SMILES) | pIC50 (DOK; DOK, 5-7 days, read-out: IC50) | pIC50 (HN3 ACC primary culture; read-out: IC50) | pIC50 (HN1 ACC primary culture; read-out: IC50) | pIC50 (HN1 ACC primary culture; Homo sapiens) | IC50 (DOK; DOK, 5-7 days, read-out: IC50) [ng/mL] | IC50 (HN1 ACC primary culture; Homo sapiens) [ng/mL] | other results
1 | COc1cccc2c1C(=O)c1c(O)c3c(c(O)c1C2=O)C[C@@](O)(C(=O)CO)C[C@@H]3O[C@H]1C[C@H](N)[C@H](O)[C@H](C)O1 [Adr] | 7.70 | 7.22 | – | – | – | – | –
2 | COc1ccc(/C=C\c2cc(OC)c(OC)c(OC)c2)cc1O [Ca4, combrestatin] | – | – | < 7.70 | – | – | – | pIC50 (DOK; read-out: IC50): 8.48; pIC50 (FaDu): 8.43; pIC50 (Cal27): 8.84; pIC50 (HN5 ACC primary culture; read-out: IC50): 8.51
3 | N.N.[Cl][Pt][Cl] [Cisp, cisplatin] | 5.43 | 5.55 | 5.30 | – | – | – | –
4 | O=c1[nH]cc(F)c(=O)[nH]1 [Compound 5FU, 5 fluorouracil] | 4.66 | – | – | 5.32 | – | – | –
5 | Nc1ccn([C@@H]2O[C@H](CO)[C@@H](O)C2(F)F)c(=O)n1 [Gem, gemcitabine] | 8.15 | – | – | 8.71 | – | – | –
6 | CO[C@@]12[C@H](COC(N)=O)C3=C(C(=O)C(C)=C(N)C3=O)N1C[C@@H]1N[C@@H]12 [MMC, mitomycin C] | 7.22 | 5.94 | 5.76 | – | – | – | –
7 | N[C@@H](Cc1ccc(N(CCCl)CCCl)cc1)C(=O)O [Mel, melphalan] | 3.95 | – | – | 4.18 | – | – | pIC50 (HN3 ACC primary culture; Homo sapiens): 4.56; pIC50 (HN5 ACC primary culture; Homo sapiens): 5.14
8 | CC1=C(N2CC2)C(=O)C(CO)=C(N2CC2)C1=O [RH1] | – | 9.07 | 8.15 | – | – | – | pIC50 (DOK; read-out: IC50): 9.48; pIC50 (FaDu): 8.87; pIC50 (Cal27): 9.96; pIC50 (HN5 ACC primary culture; read-out: IC50): 9.06
9 | CC(=O)O[C@H]1C(=O)[C@@]2(C)[C@H]([C@H](OC(=O)c3ccccc3)[C@]3(O)C[C@H](OC(=O)[C@H](O)[C@@H](NC(=O)c4ccccc4)c4ccccc4)C(C)=C1C3(C)C)[C@]1(OC(C)=O)CO[C@@H]1C[C@@H]2O [Taxol, 5(beta),20-Epoxy-1,2(alpha),4,7(beta), 10(beta), b 13(alpha)-hexahydroxytax-11-en-9-one4,10-diacetate 2-benzoate 13-ester with (2R ,3S )-N-benzoyl-3-phenylisoserine] | – | – | – | – | 2.7 | 6.1 | IC50 (HN3 ACC primary culture; Homo sapiens): 6.1 ng/mL
10 | CC[C@]1(O)C[C@@H]2CN(CCc3c([nH]c4ccccc34)[C@@](C(=O)OC)(c3cc4c(cc3OC)N(C)[C@H]3[C@@](O)(C(=O)OC)[C@H](OC(C)=O)[C@]5(CC)C=CCN6CC[C@]43[C@@H]65)C2)C1 [VBL, vinblastin] | – | – | – | – | – | – | IC50 (DOK; DOK, 5-7 days): 0.3 ng/mL; IC50 (HN1 ACC primary culture): 1.3 ng/mL; IC50 (HN3 ACC primary culture): 0.9 ng/mL
